Measurements published in US8409560B2, “Solid dispersion formulations and methods of use thereof” (Zalicus Pharmaceuticals Ltd., priority 2011, dated 2013).

How the values were obtained:
Type in all cases: physicochemical
[1] = pKa of compound 1 (previously determined)
Description: Compound 1 has the following previously determined characteristics: […]

[2] = Supersaturation dissolution kinetics of hot melt extrusion formulations; conditions: processing conditions na
Method: Supersaturation dissolution kinetics provides valuable information regarding the performance of different matrix polymers in combination with an active agent. In particular, such studies could provide insight on which formulations could provide enhanced bioavailability. Accordingly, dissolution studies were conducted on the following three HME formulations: Kollidon® VA 64 (Copovidone), HPMCAS-MF (Hypromellose Acetate Succinate), and Kollidon® K30 (Povidone, PVP).
Briefly, the target concentration of the dissolution sample solution was 1.1 mg/mL, or ten times the estimated sink dissolution sample solution concentration produced by a 100 mg dose when dissolved in 900 mL of dissolution media. Triplicate preparations of about 10 mg of extrudate (2 mg of compound 1 in the three HME formulations) were transferred into separate micro-centrifuge tubes. About 1.8 mL of dissolution media was preheated to 37° C. and added to each tube, where the tube was then placed into an incubator shaker at 37° C. and 250 rpm. Samples were centrifuged at 13,000 rpm for one minute, and 25 μL aliquots of the clear supernatant were transferred into HPLC vials and diluted with 1.0 mL of HPLC mobile phase (30%/70% of pH 6.6 buffer/acetonitrile) at 10′ (minutes), 20′, 40′, 1 hr (hour), 1.5 hrs, 2 hrs, 4 hrs, and 24 hrs. An isocratic HPLC method was applied for quantitation against a five point calibration curve in the range of 5.5-220 μg/mL (C18, 5 μm, 4.6×150 mm column, and UV 216 nm detection). The HPLC sample solution target concentration was 27.1 μg/mL.

[3] = Dissolution of solid dispersions, gastric-to-FaSSIF media transition at 13 minutes; conditions: unformulated; pH 1.0-to-6.5
Method: FIGS. 1A-1H are graphs showing the dissolution rate in gastric media for solid dispersion formulations having 20% (w/w) loading of compound 1 and a gastric-to-FaSSIF (pH 1.0-to-6.5) media transition at 13 minutes. […]
Various formulations were tested to reduce precipitation. As shown in FIGS. 1A-1H, solubility was measured for the following formulations: carboxymethylethyl cellulose (CMEC, FIG. 1A), cellulose acetate phthalate (CAP, FIG. 1B), hydroxypropylmethyl cellulose acetate succinate M grade (HPMCAS-M, FIG. 1C), polyvinyl acetate phthalate (PVAP, FIG. 1D), methacrylic acid-methyl methacrylate copolymer (Eudragit® L 100, FIG. 1E), polyethylene glycol-polyvinylcaprolactam-polyvinylacetate copolymer (Soluplus®, FIG. 1F), hydroxypropylmethyl cellulose phthalate (HPMCP-H55, FIG. 1G), and polyvinylpyrrolidone vinylacetate copolymer (PVP-VA, FIG. 1H). […]
Further tests were conducted with different % loading of compound 1. Dissolution rates were measured for formulations have 35% (w/w) loading (FIGS. 2A-2C) and 50% (w/w) loading (FIGS. 3A-3D). CAP, HPMCAS-M, Eudragit® L 100, and PVAP were further analyzed for these tests. […]

[4] = Modulated differential scanning calorimetry (MDSC), glass transition temperature Tg; conditions: compound 1 alone
Method: FIG. 6 is a graph showing modulated differential scanning calorimetry measurements at ambient relative humidity for solid dispersion formulations having 20% (w/w) loading of compound 1. Glass transition temperature Tg is shown for formulations of carboxymethylethyl cellulose (CMEC), hydroxypropylmethyl cellulose acetate succinate M grade (HPMCAS-M), cellulose acetate phthalate (CAP), and polyvinyl acetate phthalate (PVAP).
Various solid dispersion formulations were tested using modulated differential scanning calorimetry (MDSC). MDSC measurements provide glass transition temperature Tg values, which can be used to understand the molecular mobility of a drug within the dispersion. […] Data for Eudragit® L 100 are not shown, but Tg is likely greater than 150° C. due to polymer degradation above this temperature. All recorded Tg values were at least twice as high as compound 1 alone (Tg=41.6° C.). Lower Tg values could indicate potential stability issues over long periods of time or at an increased temperature or pressure. Table 3 provides Tg values for CAP (formulation 1), HPMCAS-M (formulation 2), and PVAP.

pKa [1]: 5.4
AUC0-4 hr (dissolution) [2]: 8000 ng·h/mL
Tmax (dissolution) [2]: 2 h
Cmax (dissolution) ([2]; 37° C.): 2645 ng/mL
behaviour in FaSSIF media following exposure to gastric media [3]: rapidly precipitated
Tg [4]: 41.6 °C
SMILES: O=C(CC(c1ccccc1)c1ccccc1)N1CCN(C(c2ccccc2)c2ccccc2)CC1 [Compound 1, 1-(4-benzhydrylpiperazin-1-yl)-3,3-diphenylpropan-1-one]
